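96-well plates; 48 h exposure; 5 concentrations. Endpoints by linear interpolation between flanking doses. Not reached: highest tested concentration assigned. GI50: concentration for 50% inhibition of growth. TGI denotes the concentration required for complete inhibition of growth.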
Key:
Test in all cases: NCI tumour cell line growth inhibition, 48 h
786-0 renal = system: 786-0 renal
A498 renal = system: A498 renal
A549 NSCLC = system: A549 NSCLC
ACHN renal = system: ACHN renal
BT-549 breast = system: BT-549 breast
CAKI-1 renal = system: CAKI-1 renal
CCRF-CEM leukemia = system: CCRF-CEM leukemia
COLO 205 colon = system: COLO 205 colon
DU-145 prostate = system: DU-145 prostate
EKVX NSCLC = system: EKVX NSCLC
HCC-2998 colon = system: HCC-2998 colon
HCT-116 colon = system: HCT-116 colon
HCT-15 colon = system: HCT-15 colon
HL-60(TB) leukemia = system: HL-60(TB) leukemia
HOP-62 NSCLC = system: HOP-62 NSCLC
HOP-92 NSCLC = system: HOP-92 NSCLC
HS 578T breast = system: HS 578T breast
HT29 colon = system: HT29 colon
IGROV1 ovarian = system: IGROV1 ovarian
K-562 leukemia = system: K-562 leukemia
KM12 colon = system: KM12 colon
LOX IMVI melanoma = system: LOX IMVI melanoma
MCF7 breast = system: MCF7 breast
MDA-MB-231 breast = system: MDA-MB-231 breast
MDA-MB-435 = system: MDA-MB-435
MOLT-4 leukemia = system: MOLT-4 leukemia
NCI-H226 lung = system: NCI-H226 lung
NCI-H460 lung = system: NCI-H460 lung
NCI-H522 lung = system: NCI-H522 lung
NCI/ADR-RES ovarian = system: NCI/ADR-RES ovarian
OVCAR-3 ovarian = system: OVCAR-3 ovarian
OVCAR-4 ovarian = system: OVCAR-4 ovarian
OVCAR-5 ovarian = system: OVCAR-5 ovarian
OVCAR-8 ovarian = system: OVCAR-8 ovarian
PC-3 prostate = system: PC-3 prostate
RPMI-8226 leukemia = system: RPMI-8226 leukemia
RXF 393 renal = system: RXF 393 renal
SF-268 CNS = system: SF-268 CNS
SF-295 CNS = system: SF-295 CNS
SF-539 CNS = system: SF-539 CNS
SK-MEL-2 melanoma = system: SK-MEL-2 melanoma
SK-MEL-28 melanoma = system: SK-MEL-28 melanoma
SK-MEL-5 melanoma = system: SK-MEL-5 melanoma
SK-OV-3 ovarian = system: SK-OV-3 ovarian
SN12C renal = system: SN12C renal
SNB-19 CNS = system: SNB-19 CNS
SNB-75 CNS = system: SNB-75 CNS
SR leukemia = system: SR leukemia
SW-620 colon = system: SW-620 colon
T-47D breast = system: T-47D breast
TK-10 renal = system: TK-10 renal
U251 CNS = system: U251 CNS
UACC-257 melanoma = system: UACC-257 melanoma
UACC-62 melanoma = system: UACC-62 melanoma
UO-31 renal = system: UO-31 renal

SMILES: CN1C(=O)N(c2ccccc2)C2N=C(N/N=C/c3ccccc3)SC21 (stereo not given)
- GI50 (786-0 renal): 4.21 µM
- TGI (786-0 renal): > 100 µM
- GI50 (A498 renal): > 100 µM
- TGI (A498 renal): > 100 µM
- GI50 (A549 NSCLC): 2480 nM
- TGI (A549 NSCLC): > 100 µM
- GI50 (ACHN renal): 5.19 µM
- TGI (ACHN renal): > 100 µM
- GI50 (BT-549 breast): 885 nM
- TGI (BT-549 breast): 13.7 µM
- GI50 (CAKI-1 renal): 685 nM
- TGI (CAKI-1 renal): > 100 µM
- GI50 (CCRF-CEM leukemia): 1930 nM
- TGI (CCRF-CEM leukemia): > 100 µM
- GI50 (COLO 205 colon): 1520 nM
- TGI (COLO 205 colon): 5.16 µM
- GI50 (DU-145 prostate): 3.61 µM
- TGI (DU-145 prostate): > 100 µM
- GI50 (EKVX NSCLC): 3.73 µM
- TGI (EKVX NSCLC): > 100 µM
- GI50 (HCC-2998 colon): 2250 nM
- TGI (HCC-2998 colon): 53.2 µM
- GI50 (HCT-116 colon): 710 nM
- TGI (HCT-116 colon): > 100 µM
- GI50 (HCT-15 colon): 553 nM
- TGI (HCT-15 colon): > 100 µM
- GI50 (HL-60(TB) leukemia): 452 nM
- TGI (HL-60(TB) leukemia): 6.58 µM
- GI50 (HOP-62 NSCLC): 2500 nM
- TGI (HOP-62 NSCLC): > 100 µM
- GI50 (HOP-92 NSCLC): 648 nM
- TGI (HOP-92 NSCLC): > 100 µM
- GI50 (HS 578T breast): 1700 nM
- TGI (HS 578T breast): > 100 µM
- GI50 (HT29 colon): 935 nM
- TGI (HT29 colon): 8.04 µM
- GI50 (IGROV1 ovarian): 3.86 µM
- TGI (IGROV1 ovarian): > 100 µM
- GI50 (K-562 leukemia): 447 nM
- TGI (K-562 leukemia): > 100 µM
- GI50 (KM12 colon): 819 nM
- TGI (KM12 colon): > 100 µM
- GI50 (LOX IMVI melanoma): 931 nM
- TGI (LOX IMVI melanoma): > 100 µM
- GI50 (MCF7 breast): 456 nM
- TGI (MCF7 breast): > 100 µM
- GI50 (MDA-MB-231 breast): 3.62 µM
- TGI (MDA-MB-231 breast): 82.6 µM
- GI50 (MDA-MB-435): 203 nM
- TGI (MDA-MB-435): 508 nM
- GI50 (MOLT-4 leukemia): 2380 nM
- TGI (MOLT-4 leukemia): > 100 µM
- GI50 (NCI-H226 lung): 2280 nM
- TGI (NCI-H226 lung): 66.6 µM
- GI50 (NCI-H460 lung): 1040 nM
- TGI (NCI-H460 lung): 19.9 µM
- GI50 (NCI-H522 lung): 304 nM
- TGI (NCI-H522 lung): 1580 nM
- GI50 (NCI/ADR-RES ovarian): 1050 nM
- TGI (NCI/ADR-RES ovarian): > 100 µM
- GI50 (OVCAR-3 ovarian): 556 nM
- TGI (OVCAR-3 ovarian): > 100 µM
- GI50 (OVCAR-4 ovarian): 14.5 µM
- TGI (OVCAR-4 ovarian): > 100 µM
- GI50 (OVCAR-5 ovarian): 4.22 µM
- TGI (OVCAR-5 ovarian): > 100 µM
- GI50 (OVCAR-8 ovarian): 3.56 µM
- TGI (OVCAR-8 ovarian): > 100 µM
- GI50 (PC-3 prostate): 1590 nM
- TGI (PC-3 prostate): > 100 µM
- GI50 (RPMI-8226 leukemia): 3.24 µM
- TGI (RPMI-8226 leukemia): > 100 µM
- GI50 (RXF 393 renal): 873 nM
- TGI (RXF 393 renal): 3.16 µM
- GI50 (SF-268 CNS): 5.49 µM
- TGI (SF-268 CNS): > 100 µM
- GI50 (SF-295 CNS): 622 nM
- TGI (SF-295 CNS): > 100 µM
- GI50 (SF-539 CNS): 1340 nM
- TGI (SF-539 CNS): 7.91 µM
- GI50 (SK-MEL-2 melanoma): 1100 nM
- TGI (SK-MEL-2 melanoma): > 100 µM
- GI50 (SK-MEL-28 melanoma): 16.8 µM
- TGI (SK-MEL-28 melanoma): > 100 µM
- GI50 (SK-MEL-5 melanoma): 6.05 µM
- TGI (SK-MEL-5 melanoma): 67.5 µM
- GI50 (SK-OV-3 ovarian): 2820 nM
- TGI (SK-OV-3 ovarian): > 100 µM
- GI50 (SN12C renal): 4.46 µM
- TGI (SN12C renal): > 100 µM
- GI50 (SNB-19 CNS): 3.77 µM
- TGI (SNB-19 CNS): > 100 µM
- GI50 (SNB-75 CNS): 363 nM
- TGI (SNB-75 CNS): 7.7 µM
- GI50 (SR leukemia): 380 nM
- TGI (SR leukemia): > 100 µM
- GI50 (SW-620 colon): 659 nM
- TGI (SW-620 colon): > 100 µM
- GI50 (T-47D breast): 2930 nM
- TGI (T-47D breast): > 100 µM
- GI50 (TK-10 renal): > 100 µM
- TGI (TK-10 renal): > 100 µM
- GI50 (U251 CNS): 1830 nM
- TGI (U251 CNS): > 100 µM
- GI50 (UACC-257 melanoma): 28.7 µM
- TGI (UACC-257 melanoma): > 100 µM
- GI50 (UACC-62 melanoma): 577 nM
- TGI (UACC-62 melanoma): > 100 µM
- GI50 (UO-31 renal): 3.18 µM
- TGI (UO-31 renal): > 100 µM
